Here are results for 2 compounds from US20240409527A1, “INHIBITORS OF ALPHA-5 BETA-1 INTEGRIN AND USES THEREOF” (The Regents of the University of California, priority 2022, published 2024).

SMILES strings stand for the structures.

This assay has as its target α5β1 integrin (Homo sapiens, UniProt P05556+P08648). The assay is described as follows: IC50 for the selected compounds (assay not described).

Chain of α5β1 integrin (P08648 42-894 limits assumed): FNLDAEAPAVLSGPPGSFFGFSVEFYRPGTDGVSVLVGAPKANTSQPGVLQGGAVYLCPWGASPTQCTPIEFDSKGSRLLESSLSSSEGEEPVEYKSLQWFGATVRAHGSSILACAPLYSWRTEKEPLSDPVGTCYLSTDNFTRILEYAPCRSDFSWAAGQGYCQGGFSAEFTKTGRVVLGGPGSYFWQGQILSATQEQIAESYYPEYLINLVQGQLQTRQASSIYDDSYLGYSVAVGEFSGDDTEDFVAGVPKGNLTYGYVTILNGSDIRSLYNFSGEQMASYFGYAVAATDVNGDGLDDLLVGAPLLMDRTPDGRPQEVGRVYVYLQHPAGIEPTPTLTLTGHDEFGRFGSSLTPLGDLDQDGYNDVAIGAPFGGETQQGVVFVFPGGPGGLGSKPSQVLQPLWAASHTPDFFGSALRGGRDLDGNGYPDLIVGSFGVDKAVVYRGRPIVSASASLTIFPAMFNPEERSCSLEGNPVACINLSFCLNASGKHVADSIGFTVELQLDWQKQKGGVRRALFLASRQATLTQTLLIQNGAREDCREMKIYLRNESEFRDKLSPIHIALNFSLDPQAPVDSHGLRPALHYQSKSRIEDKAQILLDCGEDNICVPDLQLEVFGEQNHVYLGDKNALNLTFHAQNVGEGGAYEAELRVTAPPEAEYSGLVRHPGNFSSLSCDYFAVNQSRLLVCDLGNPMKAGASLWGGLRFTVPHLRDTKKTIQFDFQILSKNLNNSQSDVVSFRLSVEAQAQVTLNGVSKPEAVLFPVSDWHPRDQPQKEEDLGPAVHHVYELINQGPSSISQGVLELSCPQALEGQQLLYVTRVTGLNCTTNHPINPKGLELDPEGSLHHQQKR
Chain of α5β1 integrin (P05556 21-798): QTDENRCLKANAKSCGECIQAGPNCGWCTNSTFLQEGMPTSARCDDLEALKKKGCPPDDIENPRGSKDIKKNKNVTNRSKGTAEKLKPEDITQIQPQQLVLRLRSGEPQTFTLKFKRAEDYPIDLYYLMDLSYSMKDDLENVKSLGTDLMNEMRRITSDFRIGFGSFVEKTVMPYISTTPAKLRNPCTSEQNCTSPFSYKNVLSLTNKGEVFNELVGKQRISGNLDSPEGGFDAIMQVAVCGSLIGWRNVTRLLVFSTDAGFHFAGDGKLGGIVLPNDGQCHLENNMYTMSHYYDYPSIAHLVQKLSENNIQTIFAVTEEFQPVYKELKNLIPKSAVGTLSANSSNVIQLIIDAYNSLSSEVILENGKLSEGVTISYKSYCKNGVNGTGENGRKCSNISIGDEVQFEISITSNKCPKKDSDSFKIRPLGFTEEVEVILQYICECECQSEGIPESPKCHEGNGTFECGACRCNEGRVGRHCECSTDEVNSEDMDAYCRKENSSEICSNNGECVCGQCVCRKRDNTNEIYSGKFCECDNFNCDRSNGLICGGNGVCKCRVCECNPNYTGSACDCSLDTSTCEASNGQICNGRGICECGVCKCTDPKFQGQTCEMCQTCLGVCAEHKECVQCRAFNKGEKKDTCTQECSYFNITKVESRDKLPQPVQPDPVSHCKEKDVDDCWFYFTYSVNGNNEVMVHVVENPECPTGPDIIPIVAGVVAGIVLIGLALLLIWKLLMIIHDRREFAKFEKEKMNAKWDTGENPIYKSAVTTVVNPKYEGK

For `O=C(CNC(=O)c1cncc(NC2=NCCCN2)c1)NC[C@H](NC(=O)c1c(Cl)cc(-c2ccccc2)cc1Cl)C(=O)O` [SU15210-00204-01, (S)-2-(3,5-dichlorobiphenyl-4-ylcarboxamido)-3-(2-(5-(1,4,5,6-tetrahydropyrimidin-2-ylamino)nicotinamido)acetamido)propanoic acid], the IC50 was < 1 µM.

On to `O=C(CNC(=O)c1c[nH]c(=O)c(NC2=NCCCN2)c1)NC[C@H](NC(=O)c1c(Cl)cc(-c2ccccc2)cc1Cl)C(=O)O` [SU15210-00206-01, (S)-2-(3,5-dichlorobiphenyl-4-ylcarboxamido)-3-(2-(6-oxo-5-(1,4,5,6-tetrahydropyrimidin-2-ylamino)-1,6-dihydropyridine-3-carboxamido)acetamido)propanoic acid], for which the half-maximal inhibitory concentration (IC50) is < 1 µM.

As a reminder, the IC50 is the concentration that inhibits the measured activity by half.
